# According to US20090286725A1, “PEPTIDES AND DERIVATIVES THEREOF, THE MANUFACTURING THEREOF AS WELL AS THEIR USE FOR PREPARING A THERAPEUTICALLY AND/OR PREVENTIVELY ACTIVE PHARMACEUTICAL COMPOSITION” (FIBREX MEDICAL RESEARCH & DEVELOPMENT GMBH, priority 2008, published 2009):
# No end group written: not given here.
# T1: vascular endothelial (VE) cadherin (human, UniProt P33151 48-784)
# T1 sequence (looked up): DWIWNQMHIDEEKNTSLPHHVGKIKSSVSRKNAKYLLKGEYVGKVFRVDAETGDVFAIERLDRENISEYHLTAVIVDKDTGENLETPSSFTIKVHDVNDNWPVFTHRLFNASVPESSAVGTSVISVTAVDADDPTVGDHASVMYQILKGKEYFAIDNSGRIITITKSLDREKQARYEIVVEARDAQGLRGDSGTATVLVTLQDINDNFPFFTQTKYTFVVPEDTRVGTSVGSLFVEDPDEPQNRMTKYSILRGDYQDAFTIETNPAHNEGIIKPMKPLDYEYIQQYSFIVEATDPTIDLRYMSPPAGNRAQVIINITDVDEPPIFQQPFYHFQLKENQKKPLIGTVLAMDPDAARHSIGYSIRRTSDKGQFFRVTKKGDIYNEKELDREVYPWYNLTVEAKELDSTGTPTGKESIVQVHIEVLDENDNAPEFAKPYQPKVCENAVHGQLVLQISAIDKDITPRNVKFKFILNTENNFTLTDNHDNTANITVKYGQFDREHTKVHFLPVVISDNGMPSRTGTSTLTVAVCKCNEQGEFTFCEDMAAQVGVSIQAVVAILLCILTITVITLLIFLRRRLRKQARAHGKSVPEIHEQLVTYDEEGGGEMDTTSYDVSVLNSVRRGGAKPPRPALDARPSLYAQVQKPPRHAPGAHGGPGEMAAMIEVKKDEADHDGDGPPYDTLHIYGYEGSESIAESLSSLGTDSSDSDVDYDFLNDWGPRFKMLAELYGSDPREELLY
# Assays:
# [1] = tested on: RhoA; assay: thrombin induced RhoA activation in HUVEC culture (Rho pull-down, Western blot); type: cell-based, human; conditions: 5 U/ml thrombin alone, 5 min
# Protocol: The biological effect of the compounds was established in a model thrombin induced RhoA activation in human umbilical vein endothelial cell (HUVEC) culture.
# HUVEC are grown to confluence under standard conditions. Before induction of Rho activity HUVEC were starved for 4 h by using IMDM (Gibco) without growth factor and serum supplements. After the starvation period 5 U/ml Thrombin (Calbiochem) or 5 U thrombin plus 50 μg/ml of test compound are added to the starvation medium for 1, 5 and 10 min. Active RhoA was isolated using Rho Assay Reagent from Upstate according to manufactures instructions. Isolates were separated on a 15% polyacrylamid gel and blotted on Nitrocellulose-Membrane (Bio-Rad). RhoA was dedected by using Anti-Rho (-A, -B, -C), clone55 from Upstate (1:500).
# [2] = target: T1, vascular endothelial (VE) cadherin; assay: cell-based or functional assay
Molecule,Relative RhoA stimulation compared to unstimulated control [1],Relative RhoA stimulation compared to unstimulated control [2]
thrombin,3.8,–
GHRPLDKKREEAPSLRPAPPPISGG-OH,–,0.85 fold of unstimulated control
